Test results from patent US12054495B2, “Substituted macrocyclic compounds and related methods of treatment” (Alkermes, Inc., priority 2019, dated 2024).

Experiments:
Format in all cases: in vitro ADME
MDR1 = assay: MDCK-MDR1 permeability assay; settings: dog; for Papp A→B at 2 h, 3 μM: MDCK-MDR1, MDCK-MDR1 cells, apical to basolateral, 3 μM test compound, 2 hours at 37 degrees C; for efflux ratio at 2 h, 3 μM: MDCK-MDR1, Papp (basolateral to apical) divided by Papp (apical to basolateral), MDCK-MDR1 cells, read-out: Efflux ratio (ER)
Method: The bidirectional permeability (Apical to Basal and Basal to Apical directions) of test compounds in MDCK-MIDR1 cells were evaluated using MDCK-MIDR1 cells seeded in Solvo PreadyPort™ MIDCK 96-well plate. Once the plate was received from ReadyCell (Barcelona, Spain), it was treated as per PreadyPort™ user's manual.
For the Apical to Basolateral (A→B) permeability, 80 μL of test compound (3 μM) co-dosed with LY (Lucifer Yellow) (100 μM) in HBSS (Hank's Balanced Salt Solution) assay buffer was added to the donor side (A) while 250 μL of HBSS buffer was added to the receiver side (B). For the Basolateral to Apical (B→A) permeability, 255 μL of test compound (3 μM) in HBSS assay buffer was added to the donor side (B) while 75 μL of HBSS buffer containing LY (100 μM) was added to the receiver side (A).
The plate was placed in an incubator set at 37 degrees C. After 10 minutes of pre-warming, 5 μL aliquot was taken from donor compartment and set aside as the dosing solution. The MDCK-MDR1 incubation plate was placed back into the incubator for 2 hours of incubation at 37 degrees C. After 2 hours of incubation, 25 μL and 5 μL aliquots were removed from the receiver and donor sides, respectively. To the 5 μL aliquots taken from the donor sides (before and after a 2-hour incubation) were diluted with 20 μL of the HBSS buffer. All samples were mixed with 150 μL with acetonitrile containing internal standard (IS) and 200 μL water, and analyzed by LC-MS/MS.
The apparent permeability (Papp) was calculated using the following formula: Papp=dQ/dt×1/A×C0 where: • dQ/dt: amount of translocated material over incubation time (nmol/s) • A: area of insert (0.14 cm^2 for PreadyPort™ MDR1-96) • C0: initial concentration of product applied in apical (A→B) or basal (B→A) compartment (nmol/mL)
The efflux ratio (ER) was measured by dividing the Papp (basolateral to apical direction) by Papp (apical to basolateral direction). It is a general measure of the involvement of active processes. An ER>2 is considered positive for active transport.
The data reported in Table 3 were obtained according to the MDCK-MIDR1 permeability assay described above.

[1] = Hepatocytes stability assay (human hepatocytes); settings: both sexes, cryopreserved hepatocytes, 1 μM test compound, 1×10^6 cell/mL, 37 degrees C, read-out: CLint (μL/min/million cells)
Method: (§1) In vitro metabolic stability was assessed using cryopreserved hepatocytes from male Sprague Dawley rats and a pool of 50 mixed gender humans (BioIVT, Baltimore, MD). The incubation mixtures were prepared by mixing 250 μL of pre-warmed KHB (Krebs-Henseleit buffer) containing 2×10^6 cell/mL of hepatocytes with 250 μL of pre-warmed KHB buffer containing 2 μM of test compounds in a 48-well plate, giving a final concentration of 1 μM test compound (0.1% DMSO) and 1×10^6 cell/mL of hepatocytes. The reaction mixture was incubated at 37 degrees C. A 50 μL aliquot of incubation mixture was taken at time points (0, 15, 30, 60, 120 and 240 minutes) and transferred into a 96-well plate containing 300 μL ice-cold acetonitrile (containing 30 ng/mL of labetalol and 10 ng/mL of Naltrexone-d3 as internal standards) and immediately placed in ice to terminate the reaction. Samples were centrifuged, and supernatants were transferred into 96-well plates for liquid chromatography with tandem mass spectrometry (LC-MS/MS) analysis to monitor the depletion of the test compound.
(§2) Data was calculated as percent remaining by assuming zero-minute time point peak area ratio (analyte/IS) as 100% and dividing remaining time point peak area ratios by zero-minute time point peak area ratio. Data were fitted to a first-order decay model to determine half-life. From a plot of log (ln) peak area against time, the slope of the line was determined. Subsequently, half-life (T1/2) and intrinsic clearance (CLint) were calculated using the equations below: Elimination rate constant (k)=(−slope) Half-life (T1/2)min=0.693/k Intrinsic Clearance (CLint) (mL/min/million cells)=(V×0.693)/T1/2 V=incubation volume mL/number of cells The in vitro T1/2 was converted to in vitro intrinsic clearance (CLint,hep) in units of mL/min/kg using the formula shown below:
(§3) [formula] The in vitro intrinsic clearance (CLint,hep) was scaled to in vivo hepatic clearance (CL,hep) using the following equation which was adapted from a well-stirred model.
(§4) [formula] where Q is the liver blood flow and fu is the fraction unbound (assumed to be unity in this case). All parameters used in the calculation are shown below (Table 4).
(§5) The extraction ratio (ER) was calculated by dividing the hepatic clearance of a compound to the liver blood flow. The data reported in Table 5 were obtained according to the human hepatocytes stability assay described above.

human hepatocytes = assay: Hepatocytes stability assay (human hepatocytes); settings: scaled hepatic clearance divided by liver blood flow, fu assumed unity
Method: as §1, §2, §3, §4, §5

| Papp A→B at 2 h, 3 μM (MDR1) [×10⁻⁶ cm/s] | efflux ratio at 2 h, 3 μM (MDR1) | hepatocyte CLint at 1 μM [1] [µL/min/1e6 cells] | Extraction Ratio (ER) (human hepatocytes) | Structure (SMILES) |
| --- | --- | --- | --- | --- |
| 2 | 9.5 | 66 | 0.91 | CC1(C)Oc2ccccc2C2CCC(CC2)OCC2[C@@H](NS(C)(=O)=O)CCCN2C1=O (stereo partly shown) [Compound 36] |
| 2.2 | 5.5 | 33 | 0.83 | CS(=O)(=O)N[C@H]1CCCN2C(=O)COc3c(F)cccc3C3CCC(CC3)OCC12 (stereo partly shown) [Compound 11] |
| 0.16 | 51 | 2.1 | 0.24 | CS(=O)(=O)N[C@H]1CCCN2C(=O)COc3ccc(Br)cc3C3CCC(CC3)OCC12 (stereo partly shown) [Compound 57] |
| 1.5 | 10 | 62 | 0.90 | CS(=O)(=O)N[C@H]1CCCN2CCOc3c(F)cc(F)cc3C3CCC(CC3)OCC12 (stereo partly shown) [Compound 58] |
| 15 | 0.5 | 34 | 0.84 | CS(=O)(=O)N[C@H]1CCCN2CCOc3ncccc3C3CCC(CC3)OCC12 (stereo partly shown) [Compound 65] |
| 6.3 | 1.9 | 65 | 0.91 | CC1(C)CN2CCC[C@H](NS(C)(=O)=O)C2COC2CCC(CC2)c2ccccc2O1 (stereo partly shown) [Compound 44] |
| 2 | 5.5 | 33 | 0.83 | CS(=O)(=O)N[C@H]1CCCN2CCOc3ccc(Cl)cc3C3CCC(CC3)OCC12 (stereo partly shown) [Compound 61] |
| 12 | 1.1 | 34 | 0.83 | CS(=O)(=O)N[C@H]1CCN2C(=O)COc3c(F)cc(F)cc3C3CCC(CC3)OCC12 (stereo partly shown) [Compound 43] |
| 0.47 | 97 | 28 | 0.81 | CS(=O)(=O)N[C@H]1CCCN2C(=O)CCCOc3ccccc3C3CCC(CC3)OCC12 (stereo partly shown) [Compound 4] |
| 2.6 | 7.3 | 56 | 0.89 | CS(=O)(=O)N[C@H]1CCN2C(=O)C(F)(F)Oc3c(F)cc(F)cc3C3CCC(CC3)OCC12 (stereo partly shown) [Compound 54] |

Further lines, the molecule ahead of its results:

| Structure (SMILES) | Papp A→B at 2 h, 3 μM (MDR1) [×10⁻⁶ cm/s] | efflux ratio at 2 h, 3 μM (MDR1) | hepatocyte CLint at 1 μM [1] [µL/min/1e6 cells] | Extraction Ratio (ER) (human hepatocytes) |
| --- | --- | --- | --- | --- |
| CS(=O)(=O)N[C@H]1CCCN2CCOc3c(F)cccc3C3CCC(CC3)OCC12 (stereo partly shown) [Compound 13] | 26 | 0.55 | 47 | 0.88 |
| CS(=O)(=O)N[C@H]1CCCN2C(=O)CCCCOc3ccccc3C3CCC(CC3)OCC12 (stereo partly shown) [Compound 3] | 0.8 | 34 | 43 | 0.87 |
| CS(=O)(=O)N[C@H]1CCCN2C(=O)C(F)(F)Oc3c(F)cc(F)cc3C3CCC(CC3)OCC12 (stereo partly shown) [Compound 52] | 1.2 | 12 | 44 | 0.87 |
| CS(=O)(=O)N[C@H]1CCN2C(=O)COc3ncccc3C3CCC(CC3)OCC12 (stereo partly shown) [Compound 18] | 3.9 | 2 | 23 | 0.77 |
| CS(=O)(=O)N[C@H]1CCCN2C(=O)C(F)(F)Oc3ccccc3C3CCC(CC3)OCC12 (stereo partly shown) [Compound 40] | 3.6 | 5.1 | 65 | 0.91 |
| CS(=O)(=O)N[C@H]1CCCN2C(=O)CCOc3ccccc3C3CCC(CC3)OCC12 (stereo partly shown) [Compound 1] | 0.15 | > 100 | 14 | 0.67 |
| CS(=O)(=O)N[C@H]1CCN2CCOc3ccccc3C3CCC(CC3)OCC12 (stereo partly shown) [Compound 39] | 24 | 0.49 | 47 | 0.88 |
| CS(=O)(=O)N[C@H]1CCN2C(=O)COc3c(F)cccc3C3CCC(CC3)OCC12 (stereo partly shown) [Compound 42] | 11 | 1.3 | 52 | 0.89 |
| CS(=O)(=O)N[C@H]1CCN2C(=O)C(F)(F)Oc3ccccc3C3CCC(CC3)OCC12 (stereo partly shown) [Compound 53] | 2.8 | 7.9 | 19 | 0.92 |
| CS(=O)(=O)N[C@H]1CCCN2CCOc3ccccc3C3CCC(CC3)OCC12 (stereo partly shown) [Compound 6] | 21 | 0.66 | 45 | 0.87 |
| CS(=O)(=O)N[C@H]1CCCN2C(=O)CCc3ccccc3C3CCC(CC3)OCC12 (stereo partly shown) [Compound 10] | 0.29 | 15 | 8.3 | 0.55 |
| CS(=O)(=O)N[C@H]1CCCN2C(=O)COc3ncc(F)cc3C3CCC(CC3)OCC12 (stereo partly shown) [Compound 64] | 0.83 | 30 | 9 | 0.57 |
